Test results from patent US6175013A, “Imidazolinyl tachykinin receptor antagonists” (Eli Lilly and Company, priority 1994, dated 2001).

Experiments:
human NK-2 receptor = biological target: T1, human NK-2 receptor (Homo sapiens, UniProt P21452); experiment: NK-2 Receptor Binding Assay ([125I]iodohistidyl-neurokinin A, CHO-hNK-2R cell membranes); settings: CHO-hNK-2R membranes, 20 pM [125I]iodohistidyl-neurokinin A; for IC50: 1 hr room temperature, read-out: IC50, inhibition of binding of neurokinin A
T1 construct: expressed in transfected cells; host or cells: CHO-hNK-2R cells (CHO-derived)
T1 sequence (P21452 1-398): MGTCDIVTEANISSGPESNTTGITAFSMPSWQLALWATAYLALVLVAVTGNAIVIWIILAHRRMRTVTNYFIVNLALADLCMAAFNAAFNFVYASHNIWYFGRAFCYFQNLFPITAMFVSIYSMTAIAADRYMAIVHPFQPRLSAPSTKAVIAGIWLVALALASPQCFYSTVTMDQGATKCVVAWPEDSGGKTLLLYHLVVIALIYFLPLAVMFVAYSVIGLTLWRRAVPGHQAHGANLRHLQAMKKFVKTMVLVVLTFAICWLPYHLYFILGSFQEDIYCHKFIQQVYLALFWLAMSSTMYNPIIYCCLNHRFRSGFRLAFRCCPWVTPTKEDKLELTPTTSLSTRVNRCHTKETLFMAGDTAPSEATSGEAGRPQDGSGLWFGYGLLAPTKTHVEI
Experimental: (§1) The biological activity of the compounds of the present invention was evaluated employing an initial screening assay which rapidly and accurately measured the binding of the tested compound to known NK-1 and NK-2 receptor sites. Assays useful for evaluating tachykinin receptor antagonists are well known in the art. See, e.g., J. Jukic, et al., Life Sciences, 49:1463-1469 (1991); N. Kucharczyk, et al., Journal of Medicinal Chemistry, 36:1654-1661 (1993); N. Rouissi, et al., Biochemical and Bioohysical Research Communications, 176:894-901 (1991).
NK-2 Receptor Binding Assay
The CHO-hNK-2R cells, a CHO-derived cell line transformed with the human NK-2 receptor, expressing about 400,000 such receptors per cell, were grown in 75 cm^2 flasks or roller bottles in minimal essential medium (alpha modification) with 10% fetal bovine serum. The gene sequence of the human NK-2 receptor is given in N. P. Gerard, et al., Journal of Biological Chemistry, 65:20455-20462 (1990).
For preparation of membranes, 30 confluent roller bottle cultures were dissociated by washing each roller bottle with 10 ml of Dulbecco's phosphate buffered saline (PBS) without calcium and magnesium, followed by addition of 10 ml of enzyme-free cell dissociation solution (PBS-based, from Specialty Media, Inc.). After an additional 15 minutes, the dissociated cells were pooled and centrifuged at 1,000 RPM for 10 minutes in a clinical centrifuge. Membranes were prepared by homogenization of the cell pellets in 300 ml 50 mM Tris buffer, pH 7.4 with a Tekmar® homogenizer for 10-15 seconds, followed by centrifugation at 12,000 RPM (20,000×g) for 30 minutes using a Beckman JA-14® rotor. The pellets were washed once using the above procedure. and the final pellets were resuspended in 100-120 ml 50 mM Tris buffer, pH 7.4, and 4 ml aliquots stored frozen at -70° C. The protein concentration of this preparation was 2 mg/ml.
For the receptor binding assay, one 4-ml aliquot of the CHO-hNK-2R membrane preparation was suspended in 40 ml of assay buffer containing 50 mM Tris, pH 7.4, 3 mM manganese chloride, 0.02% bovine serum albumin (BSA) and 4 μg/ml chymostatin. A 200 μl volume of the homogenate (40 μg protein) was used per sample. The radioactive ligand was [^125 I]iodohistidyl-neurokinin A (New England Nuclear, NEX-252), 2200 Ci/mmol. […] Non-specific binding was determined using 1 μM eledoisin. […]
All samples and standards were added to the incubation in 10 μl dimethylsulfoxide (DMSO) for screening (single dose) or in 5μl DMSO for IC50 determinations. […] The filter was washed 3 times with approximately 3 ml of cold 50 mM Tris buffer, pH 7.7, The filter circles were then punched into 12×75 mn polystyrene tubes and counted in a gamma counter. […]

NK-1 receptor = biological target: T2, NK-1 receptor (Homo sapiens, UniProt P25103); experiment: NK-1 Receptor Binding Assay (125I-substance P, IM9 cells); settings: 20 pM 125I-labeled substance P, 45 minutes at 4° C., may be average of more than one experiment, read-out: IC50, inhibition of binding of substance P
T2 construct: an aliquot of IM9 cells; endogenous in cells; host or cells: IM9 cells
T2 sequence (P25103 whole entry): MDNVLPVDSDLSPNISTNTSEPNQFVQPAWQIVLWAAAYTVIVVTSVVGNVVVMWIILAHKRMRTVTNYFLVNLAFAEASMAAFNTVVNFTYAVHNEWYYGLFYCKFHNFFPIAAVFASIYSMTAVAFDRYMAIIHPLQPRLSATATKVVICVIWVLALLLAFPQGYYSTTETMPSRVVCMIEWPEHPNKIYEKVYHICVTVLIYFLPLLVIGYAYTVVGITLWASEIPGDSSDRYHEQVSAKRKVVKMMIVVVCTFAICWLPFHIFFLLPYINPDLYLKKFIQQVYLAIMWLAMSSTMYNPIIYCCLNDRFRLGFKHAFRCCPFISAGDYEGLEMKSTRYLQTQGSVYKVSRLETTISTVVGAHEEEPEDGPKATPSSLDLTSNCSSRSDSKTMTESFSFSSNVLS
Experimental: as §1
NK-1 Receptor Binding Assay
Radioreceptor binding assays were performed using a derivative of a previously published protocol. D. G. Payan, et al., Journal of Immunology, 133:3260-3265 (1984). In this assay an aliquot of IM9 cells (1×10^6 cells/tube in […] medium supplemented with 10% fetal calf serum) was incubated with 20 pM ^125 I-labeled substance P in the presence of increasing competitor concentrations for 45 minutes at 4° C.
The IM9 cell line is a well-characterized cell line which is readily available to the public. See, e.g., Annals of the New York Academy of Science, 190: 221-234 (1972); Nature (London), 251:443-444 (1974); Proceedings of the National Academy of Sciences (USA), 71:84-88 (1974). These cells were routinely cultured in RPMI 1640 supplemented with 50 gg/ml gentamicin sulfate and 10% fetal calf serum.
The reaction was terminated by filtration through a glass fiber filter harvesting system using filters previously soaked for 20 minutes in 0.1% polyethylenimine. Specific binding of labeled substance P was determined in the presence of 20 nM unlabeled ligand.
Column 1 provides the example number of the test antagonist compound. The second column depicts the results of the competition assays, detailing the concentration of the test compound (in micromolar quantities) which inhibits fifty percent of the binding of substance P (IC50). Certain values may represent the average of more than one experiment.

IC50 (human NK-2 receptor)	IC50 (NK-1 receptor)	inhibition at 10 µM (human NK-2 receptor; at 10 μM, read-out: percent inhibition of neurokinin A binding)	Structure (SMILES)
16000 nM	180 nM		COc1ccccc1CN1CC(c2ccccc2)N=C1C (centres unmarked) [Example 1, 1-(2-methoxybenzyl)-2-methyl-4-phenyl-2-imidazoline]
470 nM	120 nM		COc1ccccc1CN1CC(Cc2c[nH]c3ccccc23)N=C1CN1CCN(c2ccccc2)CC1 (centres unmarked) [Example 2, 1-(2-methoxybenzyl)-2-[(4-phenyl-1-piperazinyl)methyl]-4-(1H-indol-3-ylmethyl)-2-imidazoline]
9100 nM	560 nM		COc1ccccc1CN1CC(C)(Cc2c[nH]c3ccccc23)N=C1C (centres unmarked) [Example 3, 1-(2-methoxybenzyl)-2,4-dimethyl-4-(1H-indol-3-ylmethyl)-2-imidazoline]
	140 nM	21%	COc1ccccc1CN1CC(Cc2ccccc2)N=C1C (centres unmarked) [Example 4, 1-(2-methoxybenzyl)-2-methyl-4-benzyl-2-imidazoline]
